Laboratory results from PubChem BioAssay AID248 (DTP/NCI, 2004).
Where “and” joins values, the source holds several entries; their conditions need not be identical. Equal entries are not always repeated. Toxic doses and inconclusive results are not listed.

Test system: L1210 leukemia ip in BDF1 mice, survival T/C
Assay: NCI In Vivo Anticancer Drug Screen. Data for tumor model L1210 Leukemia (intraperitoneal) in B6D2F1 (BDF1) mice
Details: endpoint: mean survival time, higher = longer survival
Outline: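 Value reflects the ratio of survival in compound-treated mice to survival in vehicle-treated controls, with both groups carrying the same transplanted tumor.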

[1] = dose: 100.0 mg/kg/injection, schedule: Q04DX003 (ip), vehicle: Klucel (hydroxypropylcellulose) (HPC)
[2] = dose: 200.0 mg/kg/injection, schedule: Q04DX003 (ip), vehicle: Klucel (hydroxypropylcellulose) (HPC)
[3] = dose: 400.0 mg/kg/injection, schedule: Q04DX003 (ip), vehicle: Klucel (hydroxypropylcellulose) (HPC)
[4] = dose: 75.0 mg/kg/injection, schedule: Q01DX001 (ip), vehicle: saline
[5] = dose: 150.0 mg/kg/injection, schedule: Q01DX001 (ip), vehicle: saline
[6] = dose: 100.0 mg/kg/injection, schedule: Q01DX001 (ip), vehicle: saline with Tween-80
[7] = dose: 100.0 mg/kg/injection, schedule: Q04DX002 (ip), vehicle: saline with Tween-80
[8] = dose: 100.0 mg/kg/injection, schedule: Q04DX003 (ip), vehicle: saline with Tween-80
[9] = dose: 200.0 mg/kg/injection, schedule: Q01DX001 (ip), vehicle: saline with Tween-80
[10] = dose: 200.0 mg/kg/injection, schedule: Q04DX002 (ip), vehicle: saline with Tween-80
[11] = dose: 200.0 mg/kg/injection, schedule: Q04DX003 (ip), vehicle: saline with Tween-80
[12] = dose: 400.0 mg/kg/injection, schedule: Q04DX003 (ip), vehicle: saline with Tween-80
[13] = dose: 100.0 mg/kg/injection, schedule: Q01DX001 (ip), vehicle: carboxymethylcellulose (CMC)
[14] = dose: 100.0 mg/kg/injection, schedule: Q04DX002 (ip), vehicle: saline
[15] = dose: 200.0 mg/kg/injection, schedule: Q01DX001 (ip), vehicle: carboxymethylcellulose (CMC)
[16] = dose: 200.0 mg/kg/injection, schedule: Q04DX002 (ip), vehicle: saline
[17] = dose: 400.0 mg/kg/injection, schedule: Q04DX002 (ip), vehicle: saline
[18] = dose: 100.0 mg/kg/injection, schedule: Q01DX009 (ip), vehicle: Klucel (hydroxypropylcellulose) (HPC)
[19] = dose: 200.0 mg/kg/injection, schedule: Q01DX009 (ip), vehicle: Klucel (hydroxypropylcellulose) (HPC)
[20] = dose: 400.0 mg/kg/injection, schedule: Q01DX009 (ip), vehicle: Klucel (hydroxypropylcellulose) (HPC)
[21] = dose: 100.0 mg/kg/injection, schedule: Q04DX003 (ip), vehicle: saline
[22] = dose: 200.0 mg/kg/injection, schedule: Q04DX003 (ip), vehicle: saline

In the case of `Cn1ncc2ccccc2c1=O`, the T/C (dose: 50.0 mg/kg/injection, schedule: Q04DX003 (ip), vehicle: Klucel (hydroxypropylcellulose) (HPC)) is reported as 100 % of control, the T/C [1] is reported as 100 % of control and the T/C [2] is reported as 106 % of control. The T/C [3] was 110 % of control.
For `CNc1nc(N(C)C)nc(N(C)C)n1`, the T/C [4] was 92 % of control and the T/C [5] was 94 % of control.
In the case of `CCOC(=O)N/N=C/c1ccc(N(C)CCC#N)cc1`, the T/C [6] is reported as 100 % of control, the T/C [7] is reported as 95 % of control and 107 % of control and the T/C [8] is reported as 102 % of control. For the same compound, the T/C [9] was 103 % of control, the T/C [10] was 96 % of control and 104 % of control and the T/C [11] was 93 % of control and 98 % of control. The T/C (dose: 400.0 mg/kg/injection, schedule: Q04DX002 (ip), vehicle: saline with Tween-80) was 98 % of control and 107 % of control and the T/C [12] was 94 % of control and 96 % of control.
In the case of `CCCCOC(=O)c1ccc(NC(=O)Nc2cccc(F)c2)cc1`, the T/C (dose: 100.0 mg/kg/injection, schedule: Q01DX009 (ip), vehicle: saline with Tween-80) is reported as 95 % of control.
`Cc1c(Cl)c(CCl)c(Cl)c(CCl)c1Cl` was tested, and the T/C (dose: 100.0 mg/kg/injection, schedule: Q01DX001 (ip), vehicle: Klucel (hydroxypropylcellulose) (HPC)) was 94 % of control, the T/C (dose: 200.0 mg/kg/injection, schedule: Q01DX001 (ip), vehicle: Klucel (hydroxypropylcellulose) (HPC)) was 92 % of control and the T/C (dose: 400.0 mg/kg/injection, schedule: Q01DX001 (ip), vehicle: Klucel (hydroxypropylcellulose) (HPC)) was 89 % of control.
For `NC(=Nc1ccccc1)C(N)=Nc1ccccc1`, the T/C (dose: 100.0 mg/kg/injection, schedule: Q04DX002 (ip), vehicle: gum acacia) was 107 % of control, the T/C (dose: 200.0 mg/kg/injection, schedule: Q04DX002 (ip), vehicle: gum acacia) was 96 % of control and the T/C (dose: 400.0 mg/kg/injection, schedule: Q04DX002 (ip), vehicle: gum acacia) was 93 % of control.
For `CCCC[n+]1ccccc1Cc1ccccc1`, the T/C (dose: 6.25 mg/kg/injection, schedule: Q04DX003 (ip), vehicle: saline) was 102 % of control and the T/C (dose: 12.5 mg/kg/injection, schedule: Q04DX003 (ip), vehicle: saline) was 97 % of control.
`CO/C(=C(/C)C(=O)O)c1c(C)cc(C)c(Br)c1C` was tested, and the T/C (dose: 75.0 mg/kg/injection, schedule: Q01DX009 (ip), vehicle: Klucel (hydroxypropylcellulose) (HPC)) was 98 % of control, the T/C (dose: 150.0 mg/kg/injection, schedule: Q01DX009 (ip), vehicle: Klucel (hydroxypropylcellulose) (HPC)) was 95 % of control and the T/C (dose: 300.0 mg/kg/injection, schedule: Q01DX009 (ip), vehicle: Klucel (hydroxypropylcellulose) (HPC)) was 109 % of control.
In the case of `O=C(O)c1cc([N+](=O)[O-])ccc1O`, the T/C [13] is reported as 95 % of control, the T/C [14] is reported as 101 % of control and the T/C [15] is reported as 95 % of control. For the same compound, the T/C [16] was 101 % of control and the T/C [17] was 101 % of control.
`OCCCCCn1cnc2c(=S)nc[nH]c21` was tested, and the T/C [18] was 101 % of control, the T/C [1] was 93 % of control and the T/C [19] was 101 % of control. The T/C [2] was 98 % of control, the T/C [20] was 102 % of control and the T/C [3] was 95 % of control.
For `CCC1C(=O)N(C)c2ccccc21` (stereo not given), the T/C (dose: 100.0 mg/kg/injection, schedule: Q01DX001 (ip), vehicle: acetone) was 100 % of control, the T/C (dose: 200.0 mg/kg/injection, schedule: Q01DX001 (ip), vehicle: acetone) was 96 % of control and the T/C (dose: 400.0 mg/kg/injection, schedule: Q01DX001 (ip), vehicle: acetone) was 97 % of control.
`Nc1ncc(-c2ccc(CNc3ccc(C(=O)NC(CC(=O)O)CC(=O)O)cc3)cc2)c(N)n1` was tested, and the T/C (dose: 10.5 mg/kg/injection, schedule: Q01DX009 (ip), vehicle: saline) was 122 % of control, the T/C (dose: 12.5 mg/kg/injection, schedule: Q01DX009 (ip), vehicle: saline) was 114 % of control and the T/C (dose: 14.5 mg/kg/injection, schedule: Q01DX009 (ip), vehicle: saline) was 116 % of control. For the same compound, the T/C (dose: 18.0 mg/kg/injection, schedule: Q01DX009 (ip), vehicle: saline) was 114 % of control, the T/C (dose: 22.0 mg/kg/injection, schedule: Q01DX009 (ip), vehicle: saline) was 116 % of control and the T/C (dose: 50.0 mg/kg/injection, schedule: Q01DX009 (ip), vehicle: saline) was 165 % of control and 185 % of control. For the same compound, the T/C (dose: 66.0 mg/kg/injection, schedule: Q01DX001 (ip), vehicle: saline) was 122 % of control, the T/C [4] was 112 % of control and 119 % of control and the T/C (dose: 75.0 mg/kg/injection, schedule: Q01DX009 (ip), vehicle: saline) was 107 % of control. For the same compound, the T/C [5] was 115 % of control.
With `Cc1ccc(NC(=O)OC(C)C)c(C)c1` the T/C [18] was 100 % of control, the T/C [19] was 100 % of control and the T/C [20] was 96 % of control.
With `COc1ccc(N=Cc2ccc(Cl)cc2)cc1C(F)(F)F` the T/C [1] was 98 % of control, the T/C [2] was 89 % of control and the T/C [3] was 104 % of control.
In the case of `CCOC(=O)c1c(N)sc2c1CCC2`, the T/C [6] is reported as 110 % of control, the T/C (dose: 100.0 mg/kg/injection, schedule: Q01DX009 (ip), vehicle: saline) is reported as 102 % of control and the T/C [14] is reported as 93 % of control. The T/C [9] was 103 % of control, the T/C (dose: 200.0 mg/kg/injection, schedule: Q01DX009 (ip), vehicle: saline) was 107 % of control and the T/C [16] was 96 % of control. For the same compound, the T/C (dose: 400.0 mg/kg/injection, schedule: Q01DX001 (ip), vehicle: saline with Tween-80) was 98 % of control and the T/C [17] was 89 % of control.
In the case of `CN(C)CCCC#N`, the T/C [21] is reported as 97 % of control and the T/C [22] is reported as 95 % of control.
In the case of `CCOC(=O)c1cnc(SC)nc1Nc1ccccc1`, the T/C [8] is reported as 94 % of control, the T/C [11] is reported as 100 % of control and the T/C [12] is reported as 86 % of control.
`CN(C)c1ccc(P(=O)(c2ccc(N(C)C)cc2)c2ccc(N(C)C)cc2)cc1.CN(C)c1ccc(P(=O)(c2ccc(N(C)C)cc2)c2ccc(N(C)C)cc2)cc1.[Cl][Sn]([Cl])([Cl])[Cl]` was tested, and the T/C (dose: 50.0 mg/kg/injection, schedule: Q01DX009 (ip), vehicle: Klucel (hydroxypropylcellulose) (HPC)) was 87 % of control, the T/C [18] was 91 % of control and the T/C [19] was 94 % of control.
With `Cc1ncc(CC(=O)O)c2c1OC(C)(C)OC2` the T/C [13] was 101 % of control, the T/C [15] was 106 % of control and the T/C (dose: 400.0 mg/kg/injection, schedule: Q01DX001 (ip), vehicle: carboxymethylcellulose (CMC)) was 98 % of control.
`CCN(CC)c1ccc(NCN2C(=O)c3ccccc3C2=O)c(C)c1` was tested, and the T/C [7] was 97 % of control and the T/C [10] was 111 % of control.
With `CCOC(=O)Oc1ccc(Br)cc1Br` the T/C (dose: 100.0 mg/kg/injection, schedule: Q01DX001 (ip), vehicle: saline) was 104 % of control, the T/C (dose: 100.0 mg/kg/injection, schedule: Q01DX009 (ip), vehicle: carboxymethylcellulose (CMC)) was 93 % of control and 96 % of control and the T/C [14] was 99 % of control. For the same compound, the T/C [21] was 103 % of control, the T/C (dose: 200.0 mg/kg/injection, schedule: Q01DX001 (ip), vehicle: saline) was 102 % of control and the T/C (dose: 200.0 mg/kg/injection, schedule: Q01DX009 (ip), vehicle: carboxymethylcellulose (CMC)) was 94 % of control and 97 % of control. For the same compound, the T/C [16] was 92 % of control, the T/C [22] was 95 % of control and the T/C (dose: 400.0 mg/kg/injection, schedule: Q01DX001 (ip), vehicle: saline) was 104 % of control. For the same compound, the T/C (dose: 400.0 mg/kg/injection, schedule: Q01DX009 (ip), vehicle: carboxymethylcellulose (CMC)) was 92 % of control and 93 % of control, the T/C [17] was 104 % of control and the T/C (dose: 400.0 mg/kg/injection, schedule: Q04DX003 (ip), vehicle: saline) was 102 % of control.
With `COc1cccc(CC(C)N)c1OC` (stereo not given) the T/C (dose: 25.0 mg/kg/injection, schedule: Q04DX003 (ip), vehicle: saline) was 103 % of control, the T/C (dose: 50.0 mg/kg/injection, schedule: Q04DX003 (ip), vehicle: saline) was 91 % of control and the T/C [21] was 101 % of control.
In the case of `CN(C)c1ccc(C(=O)c2ccc(N(C)C)c(N)c2)cc1N`, the T/C (dose: 100.0 mg/kg/injection, schedule: Q01DX001 (ip), vehicle: other) is reported as 106 % of control, the T/C (dose: 200.0 mg/kg/injection, schedule: Q01DX001 (ip), vehicle: other) is reported as 92 % of control and the T/C (dose: 400.0 mg/kg/injection, schedule: Q01DX001 (ip), vehicle: other) is reported as 101 % of control.
